According to US20240207395A1, “ADJUVANT ACTIVITY ENHANCER AND ADJUVANT COMPOSITION” (priority 2021, published 2024):
Ends that are not written are not given here. C10PNA = 10-mer peptide nucleic acid with ten cytosine bases

How the values were obtained:
[1] = tested on: A/Kansas/14/2017 strain (A/H3N2); assay type: in vivo, BALB/c mice; settings: for GMT (geometric mean IgG antibody titer) / GMT ratio to the non-adjuvanted group: BALB/c mice; for GMT (geometric mean IgG antibody titer): subcutaneous 0.1 mL, 0.6 μg HA/strain, serum 21 days after administration; for GMT ratio to the non-adjuvanted group: subcutaneous
[2] = tested on: B/Maryland/15/2016 strain (B/Victoria); assay type: in vivo, BALB/c mice; settings: for GMT (geometric mean IgG antibody titer) / GMT ratio to the non-adjuvanted group: BALB/c mice; for GMT (geometric mean IgG antibody titer): subcutaneous 0.1 mL, 0.6 μg HA/strain, serum 21 days after administration; for GMT ratio to the non-adjuvanted group: subcutaneous

| Substance | GMT (geometric mean IgG antibody titer) [1] | GMT ratio to the non-adjuvanted group ([1]; Day 21) | GMT (geometric mean IgG antibody titer) [2] | GMT ratio to the non-adjuvanted group ([2]; Day 21) | Subclass ratio of IgG1/IgG2a ([1]; Day 21) | Subclass ratio of IgG1/IgG2a ([2]; Day 21) |
| --- | --- | --- | --- | --- | --- | --- |
| MIP-03: HIV TAT-derived peptide of 13 amino acids (SEQ ID NO: 1) covalently bound at its C-terminal to C10PNA (GRKKRRQRRRPPQ-C10PNA) | 112071 | 8.7 | 25802 | 1.7 | – | – |
| 5′-[…]-3′ (SEQ ID NO: 9) [ODN1826] | 65838 | 5.1 | 31152 | 2.1 | IgG2a dominant | IgG2a dominant |
